These results are taken from PubChem BioAssay (NCI).

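Compound exposure: 48 hours, 5 concentrations, 96-well plates. TGI: concentration producing complete growth inhibition.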

Some test systems named below: 786-0 renal; COLO 205 colon; HCT-15 colon; LOX IMVI melanoma; NCI/ADR-RES ovarian; RXF 393 renal; SF-295 CNS; SK-MEL-2 melanoma; SK-OV-3 ovarian; SN12C renal; TK-10 renal.
What all share (assay): growth of human tumour cells (NCI), 48 h

On to `O=C(O)CCSc1ncnc2nc[nH]c12`, for which the TGI with 786-0 renal, with COLO 205 colon, in the experiment with HCT-15 colon, with LOX IMVI melanoma, in the experiment with NCI/ADR-RES ovarian and in the experiment on RXF 393 renal was above 100 µM throughout. Moreover, the TGI in the experiment with SF-295 CNS, with SK-MEL-2 melanoma, in the experiment on SK-OV-3 ovarian, in the experiment on SN12C renal and with TK-10 renal was above 100 µM in each case.
Consider `O=C1c2cccnc2C(=O)c2c1nc1ccccc1c2-c1ccc2c3c(nc4ccccc42)C(=O)c2cccnc2-c13`, for which the TGI worked out at 1.91 µM in the experiment with 786-0 renal; 5.68 µM with COLO 205 colon; 1.76 µM in the experiment on HCT-15 colon; 9.12 µM in the experiment with LOX IMVI melanoma; 5.16 µM in the experiment on NCI/ADR-RES ovarian; 9.68 µM in the experiment on RXF 393 renal. For the same compound, the TGI was 7.68 µM in the experiment on SF-295 CNS; 14.1 µM with SK-MEL-2 melanoma; 18.5 µM with SK-OV-3 ovarian; 4.06 µM in the experiment on SN12C renal; 19.1 µM in the experiment with TK-10 renal.
Turning to `CCOC(=O)c1c(-c2ccc(OC)cc2)c(C#N)c(=S)n(C2OC(CO)C(O)C(O)C2O)c1C` (configuration not stated), the TGI in the experiment on 786-0 renal, in the experiment with COLO 205 colon, in the experiment with HCT-15 colon, in the experiment with LOX IMVI melanoma, in the experiment on NCI/ADR-RES ovarian and with RXF 393 renal was above 100 µM in each case. Also, the TGI in the experiment with SF-295 CNS, with SK-MEL-2 melanoma, with SK-OV-3 ovarian, in the experiment with SN12C renal and in the experiment on TK-10 renal was above 100 µM each time.
`COC(=O)Cc1c2n(c3ccccc13)C(=O)N1c3ccccc3C(CC(=O)OC)C21` (configuration not stated): the TGI in the experiment with 786-0 renal is above 100 µM; in the experiment on COLO 205 colon it was above 100 µM; with HCT-15 colon, above 100 µM; in the experiment on LOX IMVI melanoma it was above 100 µM; in the experiment with NCI/ADR-RES ovarian it was above 100 µM; with RXF 393 renal it was 64 µM. Also, the TGI in the experiment on SF-295 CNS was 68.2 µM; with SK-MEL-2 melanoma it was above 100 µM; with SK-OV-3 ovarian, above 100 µM; in the experiment on SN12C renal it was above 100 µM; with TK-10 renal, 47.7 µM.
As for `Cn1c2ccccc2c2c3c(=O)[nH][nH]c(=O)c3c3c4ccccc4n(C)c3c21`, the TGI in the experiment on 786-0 renal, with COLO 205 colon, in the experiment with HCT-15 colon, with LOX IMVI melanoma, in the experiment on NCI/ADR-RES ovarian and in the experiment with RXF 393 renal was above 100 µM throughout. Also, the TGI in the experiment with SF-295 CNS, in the experiment with SK-MEL-2 melanoma, in the experiment on SK-OV-3 ovarian, with SN12C renal and in the experiment on TK-10 renal was above 100 µM in each case.
For the compound `COc1ccc2c(c1)CCC(CN1CCN(CCOC(c3ccccc3)c3ccccc3)CC1)C2O` (configuration not stated), the TGI amounted to 32.6 µM in the experiment with 786-0 renal; 27.7 µM in the experiment with COLO 205 colon; 23 µM in the experiment on HCT-15 colon; 32.5 µM in the experiment on LOX IMVI melanoma; 27.4 µM in the experiment with NCI/ADR-RES ovarian; 29.3 µM with RXF 393 renal. Moreover, the TGI in the experiment with SF-295 CNS stood at 36 µM; with SK-MEL-2 melanoma it was 33 µM; in the experiment on SK-OV-3 ovarian it was 35.8 µM; in the experiment with SN12C renal, 26.8 µM; with TK-10 renal, 28.6 µM.
For `CC1=[N+]([O-])C2(CCCC2)N(O)C1(C)C`, the TGI with 786-0 renal, in the experiment with COLO 205 colon, with HCT-15 colon, in the experiment on LOX IMVI melanoma, in the experiment with NCI/ADR-RES ovarian and in the experiment on RXF 393 renal was above 100 µM in each case. Further, the TGI in the experiment with SF-295 CNS, in the experiment on SK-MEL-2 melanoma, with SK-OV-3 ovarian, in the experiment on SN12C renal and in the experiment with TK-10 renal was above 100 µM in each case.
Regarding `O=C1CCCC2=C1CC1=C(CCCC1=O)N2c1ccc(-c2ccccc2)cc1`, the TGI with 786-0 renal is above 100 µM; in the experiment with COLO 205 colon it was above 100 µM; with HCT-15 colon, above 100 µM; with LOX IMVI melanoma, above 100 µM; in the experiment on NCI/ADR-RES ovarian it was above 100 µM; with RXF 393 renal it was above 58.9 µM. For the same compound, the TGI in the experiment on SF-295 CNS, in the experiment on SK-MEL-2 melanoma, in the experiment with SK-OV-3 ovarian, with SN12C renal and with TK-10 renal was above 100 µM each time.
`C[C@@H](CCO)OC1OC(COC(=O)C(C)(C)C)C(OC(=O)C(C)(C)C)C(OC(=O)C(C)(C)C)C1OC(=O)C(C)(C)C` (some centres not stated): the TGI in the experiment on 786-0 renal is above 100 µM; with COLO 205 colon it was above 100 µM; in the experiment on HCT-15 colon, above 100 µM; with LOX IMVI melanoma, above 100 µM; with NCI/ADR-RES ovarian, above 100 µM; in the experiment on RXF 393 renal, 61 µM. Moreover, the TGI in the experiment on SF-295 CNS is 76.7 µM; in the experiment on SK-MEL-2 melanoma it was above 100 µM; in the experiment with SK-OV-3 ovarian it was above 100 µM; with SN12C renal, above 100 µM; in the experiment with TK-10 renal, above 100 µM.
`O=c1n(CCCN2CCOCC2)nc2n1-c1ccc3ccccc3c1SC2`: the TGI was 38.3 µM with 786-0 renal; 7.49 µM in the experiment with COLO 205 colon; 67.2 µM in the experiment with HCT-15 colon; 53 µM in the experiment on LOX IMVI melanoma; above 100 µM with NCI/ADR-RES ovarian; above 100 µM in the experiment on RXF 393 renal. In addition, the TGI in the experiment with SF-295 CNS is 42.1 µM; in the experiment with SK-MEL-2 melanoma, above 100 µM; with SK-OV-3 ovarian, above 100 µM; in the experiment on SN12C renal, above 100 µM; with TK-10 renal, above 100 µM.
For `C[N+]1(CCCCN2c3ccccc3Sc3cc(N=[N+]=[N-])ccc32)CCN(C(=O)CCNC(=O)Cc2ccc(C(=O)c3ccccc3)cc2)CC1`, the TGI in the experiment with 786-0 renal was above 67.5 µM; with COLO 205 colon, 34.9 µM; in the experiment on HCT-15 colon, 55.9 µM; in the experiment on LOX IMVI melanoma it was above 78.1 µM; in the experiment on NCI/ADR-RES ovarian it was above 91.1 µM; in the experiment with RXF 393 renal it was above 80 µM. Also, the TGI in the experiment with SF-295 CNS was 45.5 µM; in the experiment on SK-MEL-2 melanoma it was above 79.4 µM; with SK-OV-3 ovarian it was 62 µM; with SN12C renal it was 53.5 µM; with TK-10 renal it was 26.5 µM.
Take `CN(C)CN1C(=O)/C(=N\n2c(-c3ccncc3)n[nH]c2=S)c2ccccc21`: the TGI in the experiment with 786-0 renal was 41.6 µM; in the experiment with COLO 205 colon it was above 100 µM; in the experiment with HCT-15 colon it was above 100 µM; in the experiment on LOX IMVI melanoma, 62.2 µM; with NCI/ADR-RES ovarian, above 100 µM; in the experiment with RXF 393 renal, 32.4 µM. Also, the TGI is above 100 µM with SF-295 CNS; 50.5 µM in the experiment on SK-MEL-2 melanoma; above 100 µM in the experiment on SK-OV-3 ovarian; above 100 µM with SN12C renal; above 100 µM in the experiment on TK-10 renal.
